Test results: PubChem BioAssay AID179 (DTP/NCI, 2004)
Where “and” joins values, the source holds several entries; their conditions need not be identical. Identical values can stand only once. Calls of active or inactive are those of the source.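 How the source made its calls: active means compounds giving half or more protection of infected cells from virus-caused growth loss, again on retest; inactive means the rest.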

Tested on: CEM cells HIV-1 protection, formazan growth assay
Test: NCI AIDS Antiviral Assay
Settings: for IC50: measured here: growth of uninfected CEM cells
Procedure, shortened: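 Five concentrations of each compound were applied to infected and uninfected human CEM cells. Protection from HIV-1 was judged from growth measured with a soluble formazan assay.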

Row | Structure (SMILES) | EC50 | IC50 | outcome
1 | Cn1c(NS(=O)(=O)c2ccccc2)nc2ccccc21 | > 200 µM | > 200 µM | –
2 | CCOC(=O)c1nn2c(nc1=O)sc1ccc3ccccc3c12 | > 69.2 µM | > 69.2 µM | –
3 | C/C(N)=N/OCc1nc(C)no1 | > 200 µM | > 200 µM | –
4 | CCOC(=O)Nc1nc2c(s1)c([N+](=O)[O-])cn2C | > 69.2 µM | 27.5 µM | –
5 | c1ccc(CSc2nc3ccccc3nc2-c2cccs2)cc1 | > 21.4 µM | > 21.4 µM | –
6 | CC1=C(C#N)C(=C(C#N)C#N)OC1(C)Cc1ccccc1 (stereo not given) | > 200 µM | 112 µM | –
7 | CC1=NNC(=NCCN(C)C)C/C1=C/c1ccccc1Cl | – | – | inactive
8 | O=C(O)c1cc2ccccc2c(N=Nc2ccc(S(=O)(=O)Nc3nccs3)cc2)c1O | > 200 µM | 155 µM | –
9 | COc1ccc(NC(=S)/C(=C(\[O-])c2ccc([N+](=O)[O-])cc2)[n+]2ccc(C(C)C)cc2)cc1 | > 200 µM | > 100 µM | –
10 | C=C1CC(C)(COc2cc(=O)oc3ccccc23)OC1=O (stereo not given) | > 200 µM | 1.74 µM | –
11 | CSc1nc(-c2ccc(Cl)cc2)c(C#N)c(=O)n1C1OC(COC(C)=O)C(OC(C)=O)C(OC(C)=O)C1OC(C)=O (stereo not given) | > 132 µM | 32.4 µM and 89.1 µM | –
12 | O=S(=O)(O)c1ccc(OCCCCCCCCCCOc2ccc(S(=O)(=O)O)cc2)cc1 | > 25.7 µM | > 25.7 µM | –
13 | N=C(N)CCNC(=O)C1CCC(N)=N1 (stereo not given) | > 851 µM | 17 µM | –
14 | NCc1ccc(S(N)(=O)=O)cc1 | > 200 µM | > 200 µM | –
15 | Cc1n[nH]c(=O)n1/N=C/c1ccncc1 | > 200 µM | 102 µM | –
16 | Cn1nc(-c2ccccc2)c(C(=O)/C=C/c2ccccc2)c(N2CCCCC2)c1=O | > 24 µM | > 24 µM | –
17 | CC(C)(CO)CNc1nc(N)nc(Cl)c1/C=N/O | > 200 µM | 5.5 µM | –
18 | Clc1ccc(-c2nn3c(C45CC6CC(CC(C6)C4)C5)nnc3s2)cc1 | > 200 µM | > 200 µM | –
19 | C/C(CC(=O)Nc1ccc(NC(=O)C/C(C)=N\NC(N)=O)cc1)=N/NC(N)=O | > 240 µM | > 240 µM | –
20 | CC(C)=C1C2C(C13C(=O)OC(C)(C)OC3=O)C2(C)C (stereo not given) | > 490 µM | > 490 µM | –
21 | Cc1ccc(NC(=O)C(=O)C2C(=O)N(c3ccccc3)N=C2N)cc1C (stereo not given) | – | – | inactive

Row | Structure (SMILES) | EC50 | IC50 | outcome
22 | CN(C)CCCOc1c(Br)cc(CCN(C)C)cc1Br | – | – | inactive
23 | CCCCCCCCN1CCCN(/N=C/c2c3c(O)c4c(O)c(C)c5c(c4c2O)C(=O)C(C)(O/C=C/C(OC)C(C)C(OC(C)=O)C(C)C(O)C(C)C(O)C(C)/C=C/C=C(C)C(=O)N3)O5)CC1 (stereo not given) | > 200 µM | 7.24 µM | –
24 | O=C(CCCCCCCCC(=O)OCCCn1cc(C(=O)NC(=O)OCc2ccccc2)c(=O)[nH]c1=O)OCCCn1cc(C(=O)NC(=O)OCc2ccccc2)c(=O)[nH]c1=O | > 15.8 µM | > 15.8 µM | –
25 | COc1ccccc1/C=C(\C#N)c1ccccc1 | > 22.4 µM | 11 µM | –
26 | CCCC(=O)[O-].CCCC(=O)[O-].NCCN.NCCN.[Co+3].[O-][Cl+3]([O-])([O-])[O-] | – | – | inactive
27 | CS/C=C\C(=O)O[C@H]1C[C@@H]2[C@@H](O)c3occ(C)c3C[C@]2(C)[C@@H](C)C1 | > 200 µM | 30.2 µM | –
28 | CC1(C)Oc2ccccc2OC1O (stereo not given) | > 200 µM | > 200 µM | –
29 | CC(C)(C)OC(=O)NCCc1cccc2c1oc1c(CCC(=O)O)cccc12 | > 309 µM | 110 µM | –
30 | CCOC(=O)C(C(=O)c1ccccc1-c1ccccc1C(=O)O)=P(c1ccccc1)(c1ccccc1)c1ccccc1 | > 229 µM | 43.7 µM | –
31 | O=S(=O)([O-])[O-].O=c1[nH]cnc2[nH]ncc12.O=c1[nH]cnc2[nH]ncc12.[Cu+2] | > 83.2 µM | 52.5 µM | –
32 | O=C1CN(C2CCCCC2)CC(=O)N2CCCCN12 | > 200 µM | > 200 µM | –
33 | CC(C)N1C(=O)C(C#N)=C(c2ccccc2)SC1c1ccccc1 (stereo not given) | > 30.2 µM | > 30.2 µM | –
34 | COc1cc(C(=O)N2C[C@H](O)C[C@H]2C(=O)O)cc(OC)c1OC | > 200 µM | > 200 µM | –
35 | CCOC(=O)[C@H]1[C@@H]2CCCC[C@@]23C(Cl)(Cl)[C@@]32C[C@]1(C(=O)OCC)CCC(=O)O2 | – | – | inactive
36 | Cc1nc(N)nc(N)c1CCCc1ccccc1 | – | – | inactive
37 | O=C(CCl)N1CCN(c2ccccc2)CC1 | > 1050 µM | 1.2 µM | –
38 | O=C(CN1CCCCC1)c1ccc2c(c1)Sc1ccccc1O2 | > 200 µM | 3.47 µM | –
39 | COC(=O)C(Cc1ccccc1)NP(=O)(O)OCC1OC(n2cc(I)c(=O)[nH]c2=O)CC1O (stereo not given) | > 200 µM | > 200 µM | –
40 | O=c1c2ccccc2ncn1COCc1ccccc1 | > 200 µM | > 200 µM | –
41 | C=C(CCCO)[C@@H]1CC[C@@](C)(O)[C@H]1C | – | – | inactive
